Data set [1] deals with T1, LMP2 (Homo sapiens, UniProt P28065+P40306).
T1 construct: endogenous in cells; host or cells: MOLT-4
Briefly: ProCISE proteasome subunit assay, LMP2. Type of data set: biochemical. Conditions: MOLT4 lysate Hu 1 h. Here is the method:
This assay was used to assess the inhibitory activity against each of LMP2, LMP7, MECL1, β1, β2, and β5. Briefly, test compounds were serially diluted in DMSO at 100× concentration, then diluted to 10× in aqueous hypotonic lysis buffer. Lysate from the human acute lymphoblastic leukemia cell line, MOLT-4, was treated for 1 hour at 25° C. with compound at a final 1× concentration. […] Following this, lysate was denatured in guanidine hydrochloride, and subunits bound to probe were isolated with streptavidin-conjugated sepharose beads. Individual subunits were probed with subunit-specific primary antibodies, followed by HRP-conjugated secondary antibodies. A chemiluminescent substrate was used to generate signal associated with HRP binding, which was detected on a plate reader. Luminescent signal was normalized to protein content, then, percent activity calculated relative to DMSO-treated controls to generate IC50 curves.

Data set [2] addresses T2, β5 (Homo sapiens, UniProt P20618+P28074).
T2 construct: endogenous in cells; host or cells: MOLT-4
In words: ProCISE proteasome subunit assay, β5. Type of data set: biochemical. Conditions: MOLT4 lysate Hu 1 h. Summed up:
(§1)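 MOLT-4 cell lysate was incubated with compound for 1 h at 25° C, then a subunit-binding probe was applied; probe-bound subunits were pulled down on streptavidin beads after guanidine denaturation and detected with subunit-specific antibodies by HRP chemiluminescence. Signal was normalized to protein and expressed as percent of DMSO control to fit IC50.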

For data set [3], the target named is T3, LMP7 (Homo sapiens, UniProt P20618+P28062).
T3 construct: endogenous in cells; host or cells: MOLT-4
Briefly: ProCISE proteasome subunit assay, LMP7. The format is biochemical. Conditions: MOLT4 lysate Hu 1 h. Summed up: as §1

Data set [4] is described as follows: Solubility pH 7. Type of data set: physicochemical. Conditions: pH 7, aqueous buffer.
For data set [5], the target named is i20S (20S immunoproteasome) (Homo sapiens, UniProt P20618+P28062). In words: 20S proteasome assay, chymotrypsin-like activity (LLVY), i20S. Type of data set: biochemical. The settings on record: LLVY i20S Hu 1 h CONT: IC50 (nM), succinyl-Leu-Leu-Val-Tyr-AMC. An excerpt:
(§2) Assay buffer consisted of TE buffer [20 mmol/L Tris (pH 8.0), 0.5 mmol/L EDTA] with (20S) or without (cell lysate) 0.03% SDS. Reactions were initiated by enzyme or lysate addition and monitored for AMC product formation at 27jC with a plate-based spectofluorometer (Tecan).

Data set [6] deals with c20S (constitutive 20S proteasome) (Homo sapiens, UniProt P20618+P28074). In words: 20S proteasome assay, chymotrypsin-like activity (LLVY), c20S. The format is biochemical. The settings on record: LLVY c20S Hu 1 h CONT: IC50 (nM), succinyl-Leu-Leu-Val-Tyr-AMC.
Source text: as §2

Results on 16 molecules are retold here after patent publication US9657057B2, “Dipeptide and tripeptide epoxy ketone protease inhibitors” (Onyx Therapeutics, Inc., priority 2013, dated 2017).

pIC50: −log10 of the molar value. ≈ marks a conversion by molar mass, not a printed value.

A word on the pIC50: it is the IC50 on a negative log10 scale, so that one unit is a factor of ten. Higher therefore signals a low IC50. Broadly, the solubility is how much of the substance goes into solution per volume. For orientation: IC50 means the point on the concentration scale where inhibition reaches its midpoint. A low value points to higher potency.

In the case of `COc1ccc(C[C@H](NC(=O)c2ccnc(N3CCOCC3)n2)C(=O)N[C@@H](Cc2ccccc2)C(=O)[C@@]2(C)CO2)cc1` [Compound C-3001], the pIC50 in data set [1] was 6.28; in data set [2], 5.25; in data set [3], 5.32.
`COc1ccc(C[C@H](NC(=O)c2cccc(=O)[nH]2)C(=O)N[C@@H](CC2=CCCC2)C(=O)[C@@]2(C)CO2)cc1` [Compound C-3015, N—((S)-1-(((S)-3-(Cyclopent-1-en-1-yl)-1-((R)-2-methyloxiran-2-yl)-1-oxopropan-2-yl)amino)-3-(4-methoxyphenyl)-1-oxopropan-2-yl)-6-oxo-1,6-dihydropyridine-2-carboxamide] gave a pIC50 in data set [1] of 7.42. The molecule further showed a solubility in data set [4] of 143 µg/mL (≈ 291 µM).
The matching figures for `C[C@]1(C(=O)[C@H](CC2CCCC2)NC(=O)[C@H](CO)NC(=O)c2cccc(=O)[nH]2)CO1` [Compound C-3019, N—((S)-1-(((S)-3-Cyclopentyl-1-((R)-2-methyloxiran-2-yl)-1-oxopropan-2-yl)amino)-3-hydroxy-1-oxopropan-2-yl)-6-oxo-1,6-dihydropyridine-2-carboxamide]: 7.77 and 639 µg/mL (≈ 1580 µM).
Turning to `COc1ccc(C[C@H](NC(=O)[C@@](C)(O)C(F)(F)F)C(=O)N[C@@H](Cc2ccccc2)C(=O)[C@@]2(C)CO2)cc1` [Compound C-3007, (R)-3,3,3-Trifluoro-2-hydroxy-N—((S)-3-(4-methoxyphenyl)-1-(((S)-1-((R)-2-methyloxiran-2-yl)-1-oxo-3-phenylpropan-2-yl)amino)-1-oxopropan-2-yl)-2-methylpropanamide], the values for the pIC50 in data set [1], in data set [2] and in data set [3] were 6.56, 5.01 and 5.46, respectively. This molecule also yielded a solubility in data set [4] of 86.7 µg/mL (≈ 166 µM).
With `COc1ccc(C[C@H](NC(=O)[C@@H](C)NC(=O)C2=CCCC2)C(=O)N[C@@H](CC2CCCC2)C(=O)[C@@]2(C)CO2)cc1` [Compound C-2037, N—((R)-1-(((S)-1-(((S)-3-cyclopentyl-1-((R)-2-methyloxiran-2-yl)-1-oxopropan-2-yl)amino)-3-(4-methoxyphenyl)-1-oxopropan-2-yl)amino)-1-oxopropan-2-yl)cyclopent-1-enecarboxamide], the values for the IC50 in data set [5] and in data set [6] were 891 nM and 6080 nM, respectively. The pIC50 in data set [2] was 5.02; in data set [3] it was 6.33. In addition, the concentration in solution in data set [4] (solubility) was 3.6 µg/mL (≈ 6.67 µM).
`C[C@H](NC(=O)c1cccc(=O)[nH]1)C(=O)N[C@@H](CC1CCCC1)C(=O)[C@@]1(C)CO1` [Compound C-3018, N—((S)-1-(((S)-3-Cyclopentyl-1-((R)-2-methyloxiran-2-yl)-1-oxopropan-2-yl)amino)-1-oxopropan-2-yl)-6-oxo-1,6-dihydropyridine-2-carboxamide] showed a negative logarithm of the IC50 (pIC50) in data set [1] of 7.60. The molecule further had a solubility in data set [4] of 516 µg/mL (≈ 1320 µM).
As for `CC[C@@](C)(O)CC(=O)N[C@H](C)C(=O)N[C@@H](Cc1ccc(OC)cc1)C(=O)N[C@@H](CC1CCCC1)C(=O)[C@@]1(C)CO1` [Compound C-2052, (R)—N—((R)-1-(((S)-1-(((S)-3-cyclopentyl-1-((R)-2-methyloxiran-2-yl)-1-oxopropan-2-yl)amino)-3-(4-methoxyphenyl)-1-oxopropan-2-yl)amino)-1-oxopropan-2-yl)-3-hydroxy-3-methylpentanamide], the IC50 was found to be 10.8 nM in data set [5] and 316 nM in data set [6]. Besides, the values for the pIC50 in data set [2] and in data set [3] were 6.25 and 7.41, respectively. The same molecule returned a solubility in data set [4] of 160 µg/mL (≈ 286 µM).
Consider `COc1ccc(C[C@H](NC(=O)[C@@H](C)NC(=O)C[C@@H](C)O)C(=O)N[C@@H](CC2CCCC2)C(=O)[C@@]2(C)CO2)cc1` [Compound C-2042, (R)—N—((R)-1-(((S)-1-(((S)-3-cyclopentyl-1-((R)-2-methyloxiran-2-yl)-1-oxopropan-2-yl)amino)-3-(4-methoxyphenyl)-1-oxopropan-2-yl)amino)-1-oxopropan-2-yl)-3-hydroxybutanamide], for which the IC50 in data set [5] came out at 336 nM; in data set [6], 9450 nM. Further, the negative-log IC50 (pIC50) was 5.23 in data set [2] and 6.21 in data set [3]. In data set [4], this molecule gave a solubility of 1830 µg/mL (≈ 3450 µM).
`COc1ccc(C[C@H](NC(=O)[C@H]2CCC(=O)N2)C(=O)N[C@@H](Cc2ccccc2)C(=O)[C@@]2(C)CO2)cc1` [Compound C-3012, (R)—N—((S)-3-(4-methoxyphenyl)-1-(((S)-1-((R)-2-methyloxiran-2-yl)-1-oxo-3-phenylpropan-2-yl)amino)-1-oxopropan-2-yl)-5-oxopyrrolidine-2-carboxamide]: the IC50 in data set [5] was 4790 nM; in data set [6] it was 14500 nM. For the same molecule, the figures for the pIC50 in data set [2] and in data set [3] were 5.22 and 5.56, respectively. This molecule returned a solubility in data set [4] of 4410 µg/mL (≈ 8930 µM).
`COc1ccc(C[C@H](NC(=O)c2cccc(=O)[nH]2)C(=O)N[C@@H](CC2CCCC2)C(=O)[C@@]2(C)CO2)cc1` [Compound C-3014, N—((S)-1-(((S)-3-Cyclopentyl-1-((R)-2-methyloxiran-2-yl)-1-oxopropan-2-yl)amino)-3-(4-methoxyphenyl)-1-oxopropan-2-yl)-6-oxo-1,6-dihydropyridine-2-carboxamide] showed a pIC50 in data set [1] of 7.46. The solubility in data set [4] turned out to be 69.4 µg/mL (≈ 140 µM).
In the same order, the values of `C[C@H](NC(=O)c1cccc(=O)[nH]1)C(=O)N[C@@H](Cc1ccccc1)C(=O)[C@@]1(C)CO1` [Compound C-3016, N—((S)-1-(((S)-1-((R)-2-Methyloxiran-2-yl)-1-oxo-3-phenylpropan-2-yl)amino)-1-oxopropan-2-yl)-6-oxo-1,6-dihydropyridine-2-carboxamide] are 7.26 and 7520 µg/mL (≈ 18900 µM).
In the case of `C[C@]1(C(=O)[C@H](Cc2ccccc2)NC(=O)[C@H](CO)NC(=O)c2cccc(=O)[nH]2)CO1` [Compound C-3017, N—((S)-3-Hydroxy-1-(((S)-1-((R)-2-methyloxiran-2-yl)-1-oxo-3-phenylpropan-2-yl)amino)-1-oxopropan-2-yl)-6-oxo-1,6-dihydropyridine-2-carboxamide], the half-inhibitory concentration (IC50) in data set [1] (ProCISE LMP2 MOLT4 lysate Hu 1 h CONT: IC50 (nM)) stood at 33 nM. This molecule also returned a solubility in data set [4] of 6640 µg/mL (≈ 16100 µM).
`COCCC(=O)N[C@H](C)C(=O)N[C@@H](Cc1ccc(OC)cc1)C(=O)N[C@@H](CC1CCCC1)C(=O)[C@@]1(C)CO1` [Compound C-2018, (S)—N—((S)-3-cyclopentyl-1-((R)-2-methyloxiran-2-yl)-1-oxopropan-2-yl)-3-(4-methoxyphenyl)-2-((R)-2-(3-methoxypropanamido)propanamido)propanamide]: the IC50 in data set [5] worked out at 570 nM; in data set [6], 12800 nM. Besides, the pIC50 in data set [2] is 4.46; in data set [3] it was 5.93. The same molecule showed a solubility in data set [4] of 129 µg/mL (≈ 243 µM).
In the same order, the values of `COc1ccc(C[C@H](NC(=O)[C@H](C)NC(=O)CC(C)(C)O)C(=O)N[C@@H](CC2CCCC2)C(=O)[C@@]2(C)CO2)cc1` [Compound C-2027, N—((S)-1-(((S)-1-(((S)-3-cyclopentyl-1-((R)-2-methyloxiran-2-yl)-1-oxopropan-2-yl)amino)-3-(4-methoxyphenyl)-1-oxopropan-2-yl)amino)-1-oxopropan-2-yl)-3-hydroxy-3-methylbutanamide] are 470 nM, 2130 nM, 5.44, 6.21 and 753 µg/mL (≈ 1380 µM).
In the same order, the values of `COc1ccc(C[C@H](NC(=O)[C@@H](C)NC(=O)c2ccncc2)C(=O)N[C@@H](CC2CCCC2)C(=O)[C@@]2(C)CO2)cc1` [Compound C-2033, N—((R)-1-(((S)-1-(((S)-3-cyclopentyl-1-((R)-2-methyloxiran-2-yl)-1-oxopropan-2-yl)amino)-3-(4-methoxyphenyl)-1-oxopropan-2-yl)amino)-1-oxopropan-2-yl)isonicotinamide] are 1450 nM, 10100 nM, below 3.60, 4.33 and 165 µg/mL (≈ 299 µM).
The matching figures for `COc1ccc(C[C@H](NC(=O)[C@@H](C)NC(=O)c2cc(C)no2)C(=O)N[C@@H](CC2CCCC2)C(=O)[C@@]2(C)CO2)cc1` [Compound C-2023, N—((R)-1-(((S)-1-(((S)-3-cyclopentyl-1-((R)-2-methyloxiran-2-yl)-1-oxopropan-2-yl)amino)-3-(4-methoxyphenyl)-1-oxopropan-2-yl)amino)-1-oxopropan-2-yl)-3-methylisoxazole-5-carboxamide]: 55.3 nM, 857 nM, 5.57, 6.50 and 100 µg/mL (≈ 181 µM).
